{"source": "paper PMC5657837", "about": "(Journal of Insect Science, 2014)", "test_system": "midgut α-amylase", "assay": "α-amylase activity of larval midgut homogenate", "type": "biochemical, Mythimna separata", "data": [{"smiles": "O=C1CCC(=O)N1Br", "note": "[NBS, N-bromosuccinimide]", "values": [{"measurement": "Ki", "result": 2.53, "unit": "µM"}]}]}
